Reference: patent publication US20070122392A1, “Propagation of undifferentiated embryonic stem cells in hyaluronic acid hydrogel” (priority 2005, published 2007)

Tests used:
[1] = Hyaluronidase degradation of HA hydrogel and release of hESCs
Description: (§1) Cell-gel constructs were cultivated in hESC grwoth medium containing 100 ng/ml bFGF or MEF conditioned media as previously described^1 Briefly, hESCs growth medium was incubated on inactivated MEF for 24 hours and collected and filtrated. bFGF (4 ng/ml) was added before use. Constructs were incubated up to 40 days. To release encapsulated hESCs, HA constructs were incubated for 24 h in hESC growth medium containing 100, 500, 1000 or 2000 U/ml hyaluronidase (Sigma, St. Louis, Mo.). For re-culture, cells were collected, centrifuged, washed three times with PBS to remove any hydrogel residues, re-suspended in growth medium, and cultured on MEF coated dishes using standard methods^22,23. For EB formation, hESCs were cultivated in non-adherent Petri-dishes.

hESCs [2] = assay: Long-term (24 hours) hyaluronidase treatment of hESC colonies; type: cell-based, human; settings: growth medium containing hyaluronidase at all concentrations
Description: as §1

hESCs [3] = assay: Karyotyping analysis; type: cell-based, human; settings: hESCs on MEFs (H9 p22; H13 p25) treated with hyaluronidase 2000 U/ml for 24 h
Description: Karyotyping analysis. Cells were prepared and analyzed as previously described and recommended^30. Karyotyping analysis was performed by Dana Faber /Harvard Cancer Research Center, Cytogenetics Laboratory, Cambridge, Mass.

hyaluronidase
degradation of the HA hydrogel ([1]; 2000 U/ml hyaluronidase in growth medium): complete degradation
state of hydrogel and hESCs ([1]; 2000 U/ml hyaluronidase in growth medium, after 18 hr): small particles of hydrogels remained that trapped hESCs
release of hESC colonies from the hydrogel ([1]; 2000 U/ml hyaluronidase in growth medium, after 24 hr): completely released
degradation of HA hydrogels ([1]; hyaluronidase concentrations of <1000 U/ml, 24 hr): only partial degradation
hESC colony morphology and viability (hESCs [2]): preserved their normal morphology with no apparent loss of viability
karyotype (hESCs [3]): normal 46XX karyotyping
